# How the values were obtained:
# sensory panel = test: Sensory panel evaluation of cooling ability, 20 ppm aqueous solutions; assay type: in vivo; parameters: key to Peak cooling strength / Peak Strength: —: Not cooling under tested conditions; conditions: for Peak cooling strength / Longevity of cooling sensation / Time to reach peak cooling / Time period at peak cooling / Peak Strength: 20 ppm aqueous solution; for Peak cooling strength: maximum cooling strength rated on a 1-10 scale; for Time period at peak cooling: cooling plateau; for Peak Strength: Table 4, repeats Table 2, 1-10 scale; for Cooling properties, in words: sensory panel results
# Experimental: The new carboxamides A1-A15 and B1-B15 were evaluated for their cooling ability by a sensory panel. The evaluation included tasting the 20 ppm aqueous solutions of new carboxamides and rating their maximum cooling strength on a 1-10 scale. In addition, the time at which maximum cooling strength was reached, how long the maximum strength was observed (so called cooling plateau), and the longevity of cooling sensation were recorded. The FIGURE represents a typical cooling profile, using compound A1 as an example. The obtained results (table 2), were compared with two most commonly used commercial cooling compounds WS-3 and WS-23 which belong to the same class of N-alkyl carboxamides. While various methods exist for evaluation of cooling compounds, we have chosen the parameters that allow to assess the practical aspects of new compounds that reflect their potential value as commercial sensory ingredients.
# [1] = amount of compound needed to produce a cooling sensation; cited from earlier work
# [2] = Cooling strength and longevity in alcohol-free mouthwash; assay type: in vivo; conditions: compared with WS-5
# Experimental: Select physiological coolants according to various embodiments were tested in an alcohol-free mouthwash and their impact was evaluated against the control (a known coolant WS-5).
# [3] = Cooling evaluation in hard boiled candy; assay type: in vivo; conditions: compared with both control samples
# Experimental: Compound A2 was tested in hard boiled candy and evaluated against controls.
# [4] = Cooling strength and longevity in toothpaste; assay type: in vivo; conditions: compared with controls
# Experimental: New cooling compound according to compound A2 was tested in toothpaste and its impact was evaluated against two controls (no coolant and a known coolant WS-5) and in combination with WS-5.
smiles,measurement,setting,value
CCCCCC(C)NC(=O)C(C)(C(C)C)C(C)C (centres unmarked) [Compound B11],melting point,,46.9 °C
same,Peak cooling strength,sensory panel,— ^a
CCC(C)CNC(=O)C1CC(C)CCC1C(C)C (centres unmarked) [Compound A6],melting point,,92.8 °C
same,Longevity of cooling sensation,sensory panel,20 min
same,Time to reach peak cooling,sensory panel,3 min
same,Time period at peak cooling,sensory panel,2 min
same,Peak cooling strength,sensory panel,6
same,Peak Strength,sensory panel,6
CCCC(C)NC(=O)C(C)(C(C)C)C(C)C (centres unmarked) [Compound B5],melting point,,98 °C
same,Longevity of cooling sensation,sensory panel,15 min
same,Time to reach peak cooling,sensory panel,2 min
same,Time period at peak cooling,sensory panel,3 min
same,Peak cooling strength,sensory panel,6
CC(C)CCCC(C)NC(=O)C1CC(C)CCC1C(C)C (centres unmarked) [Compound A14],melting point,,146.7 °C
same,Peak cooling strength,sensory panel,— ^a
same,Peak Strength,sensory panel,—^a
CC1CCC(C(C)C)C(C(=O)NC(C)C(C)C)C1 (centres unmarked) [Compound A4],melting point,,160.2 °C
same,Longevity of cooling sensation,sensory panel,20 min
same,Time to reach peak cooling,sensory panel,3 min
same,Time period at peak cooling,sensory panel,2 min
same,Peak cooling strength,sensory panel,5
same,Peak Strength,sensory panel,5
CCC(C)(C)NC(=O)C(C)(C(C)C)C(C)C [Compound B1],Peak cooling strength,sensory panel,— ^a
same,"Cooling properties, in words",sensory panel,does not possess any cooling properties
CCCCCCCNC(=O)C1CC(C)CCC1C(C)C (centres unmarked) [Compound A10],Longevity of cooling sensation,sensory panel,19 min
same,Time to reach peak cooling,sensory panel,4 min
same,Time period at peak cooling,sensory panel,1 min
same,Peak cooling strength,sensory panel,5
same,Peak Strength,sensory panel,5
CCCCCC(C)NC(=O)C1CC(C)CCC1C(C)C (centres unmarked) [Compound A11],Longevity of cooling sensation,sensory panel,15 min
same,Time to reach peak cooling,sensory panel,8 min
same,Time period at peak cooling,sensory panel,2 min
same,Peak cooling strength,sensory panel,2
same,Peak Strength,sensory panel,2
CCCCCCCCNC(=O)C(C)(C(C)C)C(C)C [Compound B12],Peak cooling strength,sensory panel,— ^a
"CCNC(=O)C1CC(C)CCC1C(C)C (centres unmarked) [WS-3, reference compound]",Threshold,[1],0.3 µg
same,Longevity of cooling sensation,sensory panel,11 min
same,Time to reach peak cooling,sensory panel,2 min
same,Time period at peak cooling,sensory panel,2 min
same,Peak cooling strength,sensory panel,5
CCCCCCNC(=O)C(C)(C(C)C)C(C)C [Compound B8],Longevity of cooling sensation,sensory panel,17 min
same,Time to reach peak cooling,sensory panel,4 min
same,Time period at peak cooling,sensory panel,1 min
same,Peak cooling strength,sensory panel,3
CC(C)CC(C)NC(=O)C1CC(C)CCC1C(C)C (centres unmarked) [Compound A9],melting point,,152.6 °C
same,Longevity of cooling sensation,sensory panel,15 min
same,Time to reach peak cooling,sensory panel,5 min
same,Time period at peak cooling,sensory panel,4 min
same,Peak cooling strength,sensory panel,3
same,Peak Strength,sensory panel,3
CCCCCCCNC(=O)C(C)(C(C)C)C(C)C [Compound B10],Peak cooling strength,sensory panel,— ^a
"CNC(=O)C(C)(C(C)C)C(C)C [WS-23, reference compound]",Longevity of cooling sensation,sensory panel,7 min
same,Time to reach peak cooling,sensory panel,2 min
same,Time period at peak cooling,sensory panel,2 min
same,Peak cooling strength,sensory panel,4
CC(C)C(C)(C(=O)NC(C)(C)CC(C)(C)C)C(C)C [Compound B15],Peak cooling strength,sensory panel,— ^a
CCCCCCNC(=O)C1CC(C)CCC1C(C)C (centres unmarked) [Compound A8],melting point,,58.8 °C
same,"Cooling effect in mouthwash, in words",[2],superior long-lasting cooling effect
same,Longevity of cooling sensation,sensory panel,29 min
same,Time to reach peak cooling,sensory panel,5 min
same,Time period at peak cooling,sensory panel,2 min
same,Peak cooling strength,sensory panel,6
same,Peak Strength,sensory panel,6
same,"Cooling properties, in words",sensory panel,peak cooling strength exceeds both WS-3 and A4
CC1CCC(C(C)C)C(C(=O)NC(C)(C)CC(C)(C)C)C1 (centres unmarked) [Compound A15],melting point,,107 °C
same,Longevity of cooling sensation,sensory panel,14 min
same,Time to reach peak cooling,sensory panel,4 min
same,Time period at peak cooling,sensory panel,6 min
same,Peak cooling strength,sensory panel,2
same,Peak Strength,sensory panel,2
same,"Cooling properties, in words",sensory panel,only as strong as A12 and much weaker than other coolants
CC(C)CC(C)NC(=O)C(C)(C(C)C)C(C)C (centres unmarked) [Compound B9],melting point,,83.7 °C
same,Longevity of cooling sensation,sensory panel,18 min
same,Time to reach peak cooling,sensory panel,4 min
same,Time period at peak cooling,sensory panel,2 min
same,Peak cooling strength,sensory panel,5
CC(C)CCNC(=O)C(C)(C(C)C)C(C)C [Compound B2],melting point,,72.2 °C
same,Longevity of cooling sensation,sensory panel,12 min
same,Time to reach peak cooling,sensory panel,3 min
same,Time period at peak cooling,sensory panel,2 min
same,Peak cooling strength,sensory panel,2
CNC(=O)C1CC(C)CCC1C(C)C (centres unmarked) [Methyl],Threshold,[1],1.1 µg
CC(C)C(C)NC(=O)C(C)(C(C)C)C(C)C (centres unmarked) [Compound B4],melting point,,88.4 °C
same,Longevity of cooling sensation,sensory panel,14 min
same,Time to reach peak cooling,sensory panel,3 min
same,Time period at peak cooling,sensory panel,2 min
same,Peak cooling strength,sensory panel,4
CC(C)CCCC(C)NC(=O)C(C)(C(C)C)C(C)C (centres unmarked) [Compound B14],melting point,,59.4 °C
same,Peak cooling strength,sensory panel,— ^a
CCC(C)(C)NC(=O)C1CC(C)CCC1C(C)C (centres unmarked) [Compound A1],melting point,,133.1 °C
same,"Cooling effect in mouthwash, in words",[2],superior long-lasting cooling effect
same,Longevity of cooling sensation,sensory panel,25 min
same,Time to reach peak cooling,sensory panel,6 min
same,Time period at peak cooling,sensory panel,2 min
same,Peak cooling strength,sensory panel,8
same,Peak Strength,sensory panel,8
same,"Cooling properties, in words",sensory panel,one of the most potent coolants found among the N-alkyl p-menthane carboxamides
CCC(CC)NC(=O)C(C)(C(C)C)C(C)C [Compound B7],melting point,,105 °C
same,Longevity of cooling sensation,sensory panel,14 min
same,Time to reach peak cooling,sensory panel,4 min
same,Time period at peak cooling,sensory panel,2 min
same,Peak cooling strength,sensory panel,4
CC1CCC(C(C)C)C(C(=O)NCC(C)(C)C)C1 (centres unmarked) [Compound A3],melting point,,152.4 °C
same,Longevity of cooling sensation,sensory panel,22 min
same,Time to reach peak cooling,sensory panel,4 min
same,Time period at peak cooling,sensory panel,3 min
same,Peak cooling strength,sensory panel,7
same,Peak Strength,sensory panel,7
CCC(C)CNC(=O)C(C)(C(C)C)C(C)C (centres unmarked) [Compound B6],melting point,,67.1 °C
same,Longevity of cooling sensation,sensory panel,17 min
same,Time to reach peak cooling,sensory panel,3 min
same,Time period at peak cooling,sensory panel,2 min
same,Peak cooling strength,sensory panel,4
CC(C)C(C)(C(=O)NCC(C)(C)C)C(C)C [Compound B3],melting point,,65.9 °C
same,Longevity of cooling sensation,sensory panel,15 min
same,Time to reach peak cooling,sensory panel,3 min
same,Time period at peak cooling,sensory panel,3 min
same,Peak cooling strength,sensory panel,3
CCCCCCCCNC(=O)C1CC(C)CCC1C(C)C (centres unmarked) [Compound A12],Longevity of cooling sensation,sensory panel,10 min
same,Time to reach peak cooling,sensory panel,6 min
same,Time period at peak cooling,sensory panel,4 min
same,Peak cooling strength,sensory panel,2
same,Peak Strength,sensory panel,2
CCCCC(CC)CNC(=O)C(C)(C(C)C)C(C)C (centres unmarked) [Compound B13],melting point,,82.5 °C
same,Peak cooling strength,sensory panel,— ^a
CCC(CC)NC(=O)C1CC(C)CCC1C(C)C (centres unmarked) [Compound A7],melting point,,192.6 °C
same,Longevity of cooling sensation,sensory panel,16 min
same,Time to reach peak cooling,sensory panel,3 min
same,Time period at peak cooling,sensory panel,2 min
same,Peak cooling strength,sensory panel,6
same,Peak Strength,sensory panel,6
CC(C)CCNC(=O)C1CC(C)CCC1C(C)C (centres unmarked) [Compound A2],melting point,,69.6 °C
same,"Cooling effect in mouthwash, in words",[2],superior long-lasting cooling effect
same,"Cooling impact in hard candy, in words",[3],long-lasting cooling impact
same,"Cooling effect in toothpaste, in words",[4],superior and longer lasting effect
same,Longevity of cooling sensation,sensory panel,23 min
same,Time to reach peak cooling,sensory panel,5 min
same,Time period at peak cooling,sensory panel,2 min
same,Peak cooling strength,sensory panel,7
same,Peak Strength,sensory panel,7

# Reference: patent publication US10981862B2, “Physiological cooling compounds” (Symrise, Inc., priority 2015, dated 2021)
